The text below walks through data of patent publication US10449223B2, “Use of dehydroeburicoic acid from Antrodia camphorata in the treatment or prevention of diabetes and hyperlipidemia” (priority 2016, dated 2019).

Test [1] concerns STZ-induced diabetic mice. The test can be described thus: Histology of epididymal WAT and liver tissue in STZ-induced diabetic mice. Format: in vivo, C57BL/6J mice. The conditions noted are these: 28 days. The text has this: Parts of EWAT and liver tissue specimens were investigated as previously described.^31,32 Microscopic images were taken using a microscope (Olympus BX51, BX51, Olympus, Tokyo, Japan).

The test system of test [2] is STZ-induced diabetic mice. The test can be described thus: Tissue weight, body weight and food intake in STZ-induced diabetic mice. The note with it: 28 days. It is filed as in vivo, C57BL/6J mice.
The subject of another test is AMPK. As to the kind of experiment: Western blotting: phospho-AMPK (Thr172)/total AMPK in skeletal muscle and liver of mice. The conditions noted are these: STZ-induced diabetic mice; Metf 300 mg/kg/day oral, 28 days. In general terms: Immunoblotting shows a protein as a band on a membrane.
The test system of test [3] is GLUT4. As to the kind of experiment: Western blotting: membrane GLUT4 in skeletal muscle of mice. The conditions noted are these: STZ-induced diabetic mice; Metf 300 mg/kg/day oral, 28 days.
Description: (§6) The study protocol was performed as previously described.^28 Diabetes was induced by intraperitoneal injection of streptozotocin (Sigma Chemical, St. Louis, Mo., USA) for 5 consecutive days. The dosage of STZ was 55 mg/kg (dissolved in 0.05 M cold sodium citrate buffer, pH 4.5). The normal control mice received only citrate buffer of the same volume.
(§7) During the experiment, all mice were fasted overnight, and blood was collected from the retro-orbital sinus. After dosing for 4 weeks, food was removed from the mice at night, and on the next day, the mice after 12 h of fasting were sacrificed. All of the individual tissues were collected and weighed, and parts of tissues were instantly frozen at −80° C. for later target gene analysis.
(§8) PPARα, PPARγ, and FAS proteins were performed by the liver and white adipose tissue of mice. Skeletal muscle from mice was subjected to GLUT4 expression level analysis, and the total membrane fractions were collected with buffer and determined using a described procedure. The protein contents of GLUT4, phospho-AMPK, and total AMPK were detected by Western blotting and determined as described.
The next test concerns FAS. As to the kind of experiment: Western blotting: FAS in liver and adipose tissue of mice. The note with it: STZ-induced diabetic mice; Metf 300 mg/kg/day oral, 28 days.
The subject of the next test is G6 Pase. As to the kind of experiment: Semiquantitative RT-PCR, liver tissue: G6 Pase mRNA. Format: in vivo, C57BL/6J mice. The conditions noted are these: STZ-induced diabetic mice; Metf 300 mg/kg/day oral, 28 days; relative to CON group (so in the source). The method, then: (§1) Total RNA from liver tissue was isolated with a Trizol Reagent (Molecular Research Center, Inc., Cincinnati, Ohio) according to the manufacturer's directions. The integrity of the extracted total RNA was examined by 2% agarose gel electrophoresis, and the RNA concentration was determined by the ultraviolet (UV) light absorbency at 260 nm and 280 nm (Spectrophotometer U-2800A, Hitachi). Total RNA (1 μg) was reverse transcribed to cDNA in a reaction mixture containing buffer, and 5 μL Moloney murine leukemia virus reverse transcriptase (Epicentre, Madison, Wis., USA). The polymerase chain reaction (PCR) was performed in a final 25 μL containing 1 U Blend Taq-Plus (TOYOBO, Japan), 1 μL of the RT first-strand cDNA product, 10 μM of each forward (F) and reverse (R) primer, 75 mM Tris-HCl (pH 8.3) containing 1 mg/L Tween 20, 2.5 mM dNTP, and 2 mM MgCl2. The products were run on 2% agarose gels and stained with ethidium bromide.

The test system of the next test is PEPCK. As to the kind of experiment: Semiquantitative RT-PCR, liver tissue: PEPCK mRNA. Format: in vivo, C57BL/6J mice. The conditions noted are these: STZ-induced diabetic mice; Metf 300 mg/kg/day oral, 28 days; relative to CON group (so in the source). On the procedure:
as §1

Another test has as its system PPARγ. As to the kind of experiment: Western blotting: PPARγ in liver and adipose tissue of mice. The note with it: STZ-induced diabetic mice; Metf 300 mg/kg/day oral, 28 days.
Test [4] concerns PPARα. The test can be described thus: Semiquantitative RT-PCR, liver tissue: PPARα mRNA. The note with it: STZ-induced diabetic mice; Metf 300 mg/kg/day oral, 28 days. Format: in vivo, C57BL/6J mice. The method, then:
as §1

The test system of another test is SREBP1c. As to the kind of experiment: Semiquantitative RT-PCR, liver tissue: SREBP1c mRNA. It is filed as in vivo, C57BL/6J mice. The note with it: STZ-induced diabetic mice; Metf 300 mg/kg/day oral, 28 days; relative to CON group (so in the source). On the procedure:
as §1

Test [5] relates to PPARα. The test can be described thus: Western blotting: PPARα in liver of mice. The note with it: STZ-induced diabetic mice; Metf 300 mg/kg/day oral, 28 days.
Description: as §6, §7, §8
In a further test the test system is DGAT2. The test can be described thus: Semiquantitative RT-PCR, liver tissue: DGAT2 mRNA. Format: in vivo, C57BL/6J mice. The conditions noted are these: STZ-induced diabetic mice; Metf 300 mg/kg/day oral, 28 days; relative to CON group (so in the source). The method, then:
as §1

The test system of the next test is Akt. As to the kind of experiment: phospho-Akt (Ser473)/total Akt in C2C12 myotube cells (Western blot). Format: cell-based. The conditions noted are these: 100 nM insulin, 25 min. On the procedure: (§2) C2C12 skeletal myoblasts (ATCC, CRL-1772) were maintained in growth media consisting of Dulbecco's modified Eagle's medium (DMEM) (Gibco BRL) supplemented with 10% fetal bovine serum (FBS) (Hyclone) and 100 U/mL penicillin/100 μg/mL streptomycin (Gibco BRL) and split 1:4 using 0.05% trypsin when 80% confluent. Myoblasts were diluted and placed in a 9 cm dish. Cells were cultured to achieve 80-90% confluency, and growth medium was changed as 2% FBS/DMEM every 24 h for 5-7 days.
(§3) Determination of GLUT4 and phospho-Akt (Ser^473)/Total Akt Proteins in Vitro: Differentiated C2C12 cells were serum starved in DMEM/BSA (2 h at 37° C.) prior to incubation either with test compounds (TT at 1, 5, 10, and 25 μg/mL) or with vehicle (DMSO containing saline, final concentration of DMSO=0.2%) for 30 min or with 100 nM insulin for 25 min.
(§4) Following treatment, cells were washed three times with ice-cold PBS and separated into two portions. A portion of the cells was subsequently lysed in RIPA buffer (50 mM Tris-HCl, pH 8, 150 mM NaCl, 1% NP-40, 0.5% sodium deoxycholate, 0.1% SDS) supplemented with complete protease inhibitor cocktail (Roche) and phosphatase inhibitors and then centrifuged at 20000 g for […].
Supernatant protein was collected and stored at −20° C. Another portion of cells was homogenized with buffer (250 mmol/L sucrose, 50 mmol/L Tris, and 0.2 mmol/L edetic acid, pH 7.4) at 4° C., as previously described. The homogenates were centrifuged at 9000 g for 10 min (4° C.). The pellet was suspended with 0.5 mL of homogenization buffer and then centrifuged, repeated three times. The three supernatants were collected, mixed, and centrifuged at 190000 g for 60 min (4° C.). […]
(§5) Protein concentration was determined via BCA assay (Pierce). Equal amounts of protein were then diluted four times in SDS sample buffer and subjected to SDS-PAGE and were detected by Western blotting with antibodies specific for Akt, phosph-Akt Ser^473, and GLUT4. The density blotting was analyzed using Alpha Easy FCsoftware (Alpha Innotech Corp., Randburg, South Africa).

Test [6] concerns GLUT4. The test can be described thus: GLUT4 protein expression in C2C12 myotube cells (Western blot). Format: cell-based. The note with it: 100 nM insulin, 25 min. On the procedure:
as §2, §3, §4
Supernatant protein was collected and stored at −20° C. Another portion of cells was homogenized with buffer (250 mmol/L sucrose, 50 mmol/L Tris, and 0.2 mmol/L edetic acid, pH 7.4) at 4° C., as previously described. The homogenates were centrifuged at 9000 g for 10 min (4° C.). The pellet was suspended with 0.5 mL of homogenization buffer and then centrifuged, repeated three times. The three supernatants were collected, mixed, and centrifuged at 190000 g for 60 min (4° C.). The pellet was resuspended with 0.2 mL of homogenization buffer, stored at −20° C., and performed within membrane.
as §5

Description for AMPK: as §6, §7, §8
Description for FAS: as §6, §7, §8
Description for PPARγ: as §6, §7, §8

With `CC(C)OC(=O)C(C)(C)Oc1ccc(C(=O)c2ccc(Cl)cc2)cc1` [Feno, fenofibrate, reference compound], the “average area of adipocytes in epididymal WAT” value in test [1] (Feno 250 mg/kg/day oral) was found to be 5373.8±194.6 μm^2. In addition, in [2] (Feno 250 mg/kg/day oral), the “Tissue weight: BAT” value came out at 0.319 ± 0.030 wt %, the “Tissue weight: EWAT” value was 0.743 ± 0.059 wt %, the “Tissue weight: MWAT” value is 0.795 ± 0.070 wt % and the “Tissue weight: RWAT” value worked out at 0.154 ± 0.016 wt %. In addition, the “Tissue weight: Visceral fat” value in test [2] (Feno 250 mg/kg/day oral) was determined as 0.889 ± 0.075 wt %.

Turning to `CN(C)C(=N)N=C(N)N` [Metf, metformin, reference compound], the “muscular expression levels of phospho-AMPK/total AMPK compared with the STZ group (second sentence)” value in the test with AMPK is recorded as “increased”. Further, the “membrane expression levels of GLUT4 in skeletal muscle vs STZ group” value in the test on GLUT4 [3] is on record as “greater”. For the same molecule, in the test with FAS, the “expression levels of FAS in adipose tissue” value is reported as “decreased” and the “expression levels of FAS in the liver” value is recorded as “decreased”. The “mRNA levels of G6 Pase in liver” value in the test on G6 Pase is on record as “decreased”. The “mRNA levels of PEPCK in liver” value in the test on PEPCK is recorded as “decreased”. In addition, in the test with PPARγ, the “expression levels of PPARγ in adipose tissue” value is “decreased” and the “expression levels of PPARγ in the liver” value was “decreased”. Besides, the “mRNA level of PPARα in liver” value with PPARα [4] is listed as “increased”. Also, the “mRNA levels of SREBP1c in liver” value in the test with SREBP1c is listed as “decreased”. In the test on PPARα [5], the “expression levels of PPARα in the liver” value is “increased”. In [1] (Metf 300 mg/kg/day oral), the “average area of adipocytes in epididymal WAT” value is on record as 5308.9±204.7 μm^2 and the “ballooning of hepatocyte (liver histology)” value is “no ballooning phenomenon”. In the test with DGAT2, the “mRNA levels of DGAT2 in liver” value is “decreased”. Moreover, in [2] (Metf 300 mg/kg/day oral), the “Tissue weight: EWAT” value was 0.956 ± 0.047 wt %, the “Tissue weight: RWAT” value came out at 0.176 ± 0.023 wt % and the “Tissue weight: Visceral fat” value turned out to be 1.132 ± 0.054 wt %.

For insulin [reference compound], the “levels of phospho-Akt (Ser473)/total Akt proteins vs CON group” value in the test on Akt is reported as “higher”. For the same molecule, in the test with GLUT4 [6], the “protein expressions of GLUT4 vs CON group” value is reported as “higher”.
